Measured values taken from article PMC6142817, “New Urea Derivatives Are Effective Anti-senescence Compounds Acting Most Likely via a Cytokinin-Independent Mechanism” (Frontiers in Plant Science, 2018).
Like-named read-outs stand apart in the source and are kept apart here.

Assays:
[1] = test system: detached wheat leaves (ethylene production); experiment: Ethylene accumulation assay; type: cell-based, Triticum aestivum; details: 10 μM, sealed vials; for ethylene production, fold of the control: days 3–6, dark; for ethylene production, fold of untreated leaves: first 3 days, dark
Method: Two detached leaf tips (final weight 50 mg) from 7-day-old wheat plants were incubated in 10 mL gas chromatography vials with either 1 mL of 0.1% DMSO (control), 10 μM ASES or 10 μM TDZ, and kept in the dark for 6 days at 25°C (1 day longer than the classical WLSA). On the third day, 1 mL of air from each vial was collected and the vials were then left open for 1 h and aerated with fresh air. Another 1 mL of air was collected from each vial on the sixth day. The amount of ethylene in each sample was determined using gas chromatography and the flame ionization detector method described by Fišerová et al. ([2001]).

[2] = test system: ARR5:GUS reporter gene; experiment: Arabidopsis ARR5:GUS reporter gene assay; type: in vivo, Arabidopsis thaliana
Method: Transgenic Arabidopsis plants (Arabidopsis thaliana (L.) Heynh. accession Wassilewskija) harboring the GUS reporter gene (gene for β-glucuronidase) fused to 1.6 kb of the ARR5 (PARR5−GUS) gene promoter (D'Agostino et al., [2000]) were kindly provided by professor Thomas Schmülling. The assay was performed according to Romanov et al. ([2002]). β-Glucuronidase (GUS) activity was quantitatively determined by measuring fluorescence of 4-methylumbelliferyl (MU) on a Synergy H4 hybrid reader (Biotek, Winooski, VT) with excitation and emission wavelengths of 365 and 445 nm, respectively. GUS specific activity was determined as nmol MU × mg protein^−1 × h^−1. This was calculated by dividing the relative fluorescence units (obtained per hour) by protein content of the same sample. Protein extraction was done as described by Romanov et al. ([2002]) but its content was determined using a bicinchoninic acid reagent (Smith et al., [1985]). Finally we expressed the GUS activity in samples as a relative percentage, the activity of 1 μM BA being set as 100% activation. The concentration-dependent activity curves and EC50 values (for TDZ, tZ, BA, TD-iP, and TD-tZ) were constructed using Scion image program.

[3] = target: T1, AHK3 (Arabidopsis thaliana, UniProt Q9C5U1); experiment: Cytokinin receptor activation assay in E. coli (AHK3); type: cell-based
T1 construct: expressed in transfected cells; host or cells: Escherichia coli strain KMI001, plasmid pSTV28-AHK3
T1 sequence (Q9C5U1 1-1036): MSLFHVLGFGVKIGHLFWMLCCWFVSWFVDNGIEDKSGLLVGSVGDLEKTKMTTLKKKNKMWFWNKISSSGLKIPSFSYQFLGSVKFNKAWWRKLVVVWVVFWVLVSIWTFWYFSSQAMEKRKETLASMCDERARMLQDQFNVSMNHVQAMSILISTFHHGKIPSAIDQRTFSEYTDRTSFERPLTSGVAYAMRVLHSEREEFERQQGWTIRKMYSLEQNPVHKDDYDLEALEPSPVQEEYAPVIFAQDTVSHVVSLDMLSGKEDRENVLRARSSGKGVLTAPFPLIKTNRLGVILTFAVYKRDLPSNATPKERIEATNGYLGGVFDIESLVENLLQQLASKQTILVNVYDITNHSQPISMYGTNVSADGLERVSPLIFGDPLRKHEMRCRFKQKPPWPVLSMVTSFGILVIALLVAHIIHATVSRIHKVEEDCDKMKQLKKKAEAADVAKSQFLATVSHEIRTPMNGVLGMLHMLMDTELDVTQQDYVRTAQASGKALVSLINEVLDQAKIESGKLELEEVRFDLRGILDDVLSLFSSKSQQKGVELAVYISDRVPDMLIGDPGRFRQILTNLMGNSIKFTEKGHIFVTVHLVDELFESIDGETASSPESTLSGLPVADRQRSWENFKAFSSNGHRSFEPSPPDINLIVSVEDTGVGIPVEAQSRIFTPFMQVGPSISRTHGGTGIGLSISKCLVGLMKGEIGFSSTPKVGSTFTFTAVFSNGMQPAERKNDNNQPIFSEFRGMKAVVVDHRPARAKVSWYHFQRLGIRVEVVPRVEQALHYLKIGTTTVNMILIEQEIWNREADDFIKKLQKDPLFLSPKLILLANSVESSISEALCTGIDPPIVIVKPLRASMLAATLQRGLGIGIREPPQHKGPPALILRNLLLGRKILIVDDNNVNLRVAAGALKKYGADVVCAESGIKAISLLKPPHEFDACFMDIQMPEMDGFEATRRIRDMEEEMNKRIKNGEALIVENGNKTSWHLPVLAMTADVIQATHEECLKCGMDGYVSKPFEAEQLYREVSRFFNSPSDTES
Source text: The activity of this enzyme is finally measured in the assay and corresponds to the ability of the tested compound to activate this cytokinin receptor. Both assays were done at least twice and the presented graphs are the most representative examples.

[4] = test system: excised wheat leaves (chlorophyll degradation in the dark); experiment: Wheat leaf senescence assay (WLSA); type: cell-based, Triticum aestivum cv. Hereward; details: for Chlorophyll content (% of the fresh control): 5 days in the dark, DMSO control = 0; for chlorophyll remaining, % of the initial chlorophyll: 21 days after leaf detachment, dark; for IC50: Triticum aestivum, 120 h
Method: (§1) Tobacco callus, Amaranthus and Wheat leaf senescence assay (WLSA) were performed as described by Holub et al. ([1998]) including the number of repetitions in each assay. An exception to the published protocols was that the tobacco callus assay was performed in 6-well microtiter plates (with each well containing 3 ml of Murashige Skoog medium into which 0.1 g of callus was added). Each compound was tested at least twice in each assay and in a wider concentration range to obtain concentration-dependent activity curves. IC50 means compound concentration at which chlorophyll degradation is inhibited by 50% and EC50 means half the maximal effective concentration.
Amaranthus assay evaluates the induction of betacyanin synthesis in Amaranthus (Amaranthus caudatus var. atropurpurea) cotyledons, which is induced by cytokinins (Bamberger and Mayer, [1960]). The WLSA evaluates the ability of compounds to retard chlorophyll degradation in excised wheat leaves that are kept in the dark. The wheat leaf segments (Triticum aestivum cv. Hereward) were used in all other experiments requiring wheat. Arabidopsis (Arabidopsis thaliana) leaf senescence assay was performed with detached leaves from 30-day-old plants, which were grown in soil in phytotron under standard conditions (Rivero et al., [2014]). Four leaves of a combined weight of 60 mg were placed in a six-well plate and stored in the dark for 12 days at 22°C. The leaves (except the fresh control leaves) floated on water solutions of tested compounds. Fresh control leaves were leaves detached from a plant and immediately used for chlorophyll determination. The duration of the senescence assay of Arabidopsis leaves was prolonged to highlight the difference in chlorophyll content between a negative control and treatments. Arabidopsis leaves were losing chlorophyll more slowly than wheat leaves. Chlorophyll extraction and spectrophotometric determination of its content was done according to Holub et al. ([1998]).

[5] = test system: cytokinin-dependent tobacco callus; experiment: Tobacco callus bioassay; type: cell-based; details: for EC50: Nicotiana tabacum
Method: as §1

Structure (SMILES)	ethylene production, fold of the control [1] [fold]	ethylene production, fold of untreated leaves [1] [fold]	ARR5:GUS activity, % of BA activity ([2]; compound at 10 μM, 1 μM BA = 100%)	EC50 ([3]; E. coli bacterial receptor assay, read-out: AHK3 receptor activation EC50) [nM]	Chlorophyll content (% of the fresh control) ([4]; 0.01 μM)	Chlorophyll content (% of the fresh control) ([4]; 0.1 μM)	Chlorophyll content (% of the fresh control) ([4]; 1 μM)	Chlorophyll content (% of the fresh control) ([4]; 10 μM)	chlorophyll remaining, % of the initial chlorophyll ([4]; 10 μM)	Chlorophyll content (% of the fresh control) ([4]; 100 μM)	IC50 ([4]; detached wheat leaves in the dark, 5 days, concentration at which chlorophyll degradation is inhibited by 50%, read-out: Senescence bioassay (IC50)) [µM]	times more effective than TDZ in WLSA ([4]; ratio of IC50 values)	cell division stimulatory effect, times lower than that of TDZ [5]	EC50 ([5]; half the maximal effective concentration, N.A. = not active, read-out: Tobacco callus bioassay (EC50)) [µM]	Tobacco callus bioassay (EC50, μM) ([5]; half the maximal effective concentration, N.A. = not active)	EC50 ([2]; Arabidopsis thaliana, read-out: ARR5:GUS activation EC50) [nM]	EC50 [3] [nM]	IC50 ([4]; read-out: Senescence bioassay (IC50, μM)) [µM]	EC50 ([5]; read-out: Tobacco callus bioassay (EC50, μM)) [µM]
COCCNC(=O)Nc1cnns1 [ASES, 1-(2-methoxy-ethyl)-3-1,2,3-thiadiazol-5-yl-urea]	1.22	1.36	55–65%	> 50000	8 (±4) %	25 (±7) %	51 (±8) %	79 (±8) %	~50%	98 (±7) %	0.95	approximately 13 times	more than 700 times	0.68	sub-micromolar range	–	–	–	–
O=C(Nc1ccccc1)Nc1cnns1 [TDZ, 1-phenyl-3-(1,2,3-thiadiazol-5-yl)urea, reference compound]	2.18	2.02	–	–	8 (±2) %	18 (±5) %	34 (±7) %	50 (±11) %	approximately 15%	91 (±2) %	–	–	–	–	–	4	105	13	0.001
